Data from publication PMC10046961, “High-Throughput Screening Assay for Detecting Drug-Induced Changes in Synchronized Neuronal Oscillations and Potential Seizure Risk Based on Ca^2+ Fluorescence Measurements in Human Induced Pluripotent Stem Cell (hiPSC)-Derived Neuronal 2D and 3D Cultures” (Cells, 2023).
Like-named read-outs stand apart in the source and are kept apart here.

Key:
[1] = tested on: hiPSC-derived neurons co-cultured with human primary astrocytes in 2D; experiment: Ca2+ transient oscillation assay (FDSS), 2D co-culture; type: cell-based; conditions: Homo sapiens, 1 h, 60 min
In short: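 Cultures were 10,000 CW50065 hiPSC excitatory neurons plus 2500 primary human astrocytes per well. Recordings used Cal-520 dye in HBSS/HEPES/glucose at 37 °C, with a 470/540 nm read at 2 Hz. Oscillations were stabilized with 0.04% DMSO, read for 20 min, then read again 60 min after compound addition (final DMSO 0.1%).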

[2] = tested on: hiPSC-derived neurons co-cultured with human primary astrocytes in 3D; experiment: Ca2+ transient oscillation assay (FDSS), 3D spheroids; type: cell-based; conditions: 60 min
In short: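 Fura-2 fluorescence was read twice for 20 min each: a baseline 10 min after 0.04% DMSO, and again 60 min after compound addition at nominal final concentration. The 3D co-cultures (1:1 hiPSC neurons from a donor and human astrocytes, 8000 each) matured 5 weeks in BrainPhys medium after a 1-week differentiation.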

[3] = ref PharmaPendium, cited from earlier work
[4] = read-out: Area under the curve - 2D Mean
[5] = read-out: Peak amplitude - 2D Mean
[6] = read-out: Peak-to-peak interval - 2D Mean

SMILES: CCN(CC)CCCC(C)Nc1c2ccc(Cl)cc2nc2ccc(OC)cc12 (stereo not drawn) [Quinacrine, quinacrine]
- activation at 0.37 µM [1, 4]: 5.3%
- activation at 0.37 µM ([1]; read-out: Peak Number—2D Mean): -2.7%
- activation at 0.37 µM [1, 5]: 1.8%
- activation at 0.37 µM ([1]; read-out: Peak width - 2D Mean): 2.8%
- activation at 0.37 µM [1, 6]: 7%
- activation at 1.11 µM [1, 4]: 11.2%
- activation at 1.11 µM ([1]; read-out: Peak Number—2D Mean): -2.8%
- activation at 1.11 µM [1, 5]: 1.2%
- activation at 1.11 µM ([1]; read-out: Peak width - 2D Mean): 10.7%
- activation at 1.11 µM [1, 6]: -4%
- activation at 3.33 µM [1, 4]: -13.8%
- activation at 3.33 µM ([1]; read-out: Peak Number—2D Mean): -11%
- activation at 3.33 µM [1, 5]: -7.8%
- activation at 3.33 µM ([1]; read-out: Peak width - 2D Mean): -12.8%
- activation at 3.33 µM [1, 6]: 40.2%
- activation at 10 µM [1, 4]: -84.7%
- activation at 10 µM ([1]; read-out: Peak Number—2D Mean): -92.2%
- activation at 10 µM [1, 5]: -78%
- activation at 10 µM ([1]; read-out: Peak width - 2D Mean): -84.3%
- activation at 10 µM [1, 6]: -18.2%
- Area under the curve - 3D Mean ([2]; 0.37 µM): 123.5 % change from baseline
- Peak Number—3D Mean ([2]; 0.37 µM): 3.2 % change from baseline
- Peak amplitude - 3D Mean ([2]; 0.37 µM): 113.4 % change from baseline
- Peak width - 3D Mean ([2]; 0.37 µM): −1.8 % change from baseline
- Peak-to-peak interval - 3D Mean ([2]; 0.37 µM): −0.7 % change from baseline
- Area under the curve - 3D Mean ([2]; 1.11 µM): 149.1 % change from baseline
- Peak Number—3D Mean ([2]; 1.11 µM): 0.4 % change from baseline
- Peak amplitude - 3D Mean ([2]; 1.11 µM): 128.3 % change from baseline
- Peak width - 3D Mean ([2]; 1.11 µM): 4.2 % change from baseline
- Peak-to-peak interval - 3D Mean ([2]; 1.11 µM): 6.2 % change from baseline
- Area under the curve - 3D Mean ([2]; 3.33 µM): 139.1 % change from baseline
- Peak Number—3D Mean ([2]; 3.33 µM): 14.1 % change from baseline
- Peak amplitude - 3D Mean ([2]; 3.33 µM): 108.9 % change from baseline
- Peak width - 3D Mean ([2]; 3.33 µM): 10.6 % change from baseline
- Peak-to-peak interval - 3D Mean ([2]; 3.33 µM): −5.5 % change from baseline
- Area under the curve - 3D Mean ([2]; 10 µM): 128.2 % change from baseline
- Peak Number—3D Mean ([2]; 10 µM): 12.5 % change from baseline
- Peak amplitude - 3D Mean ([2]; 10 µM): 108.3 % change from baseline
- Peak width - 3D Mean ([2]; 10 µM): 9.5 % change from baseline
- Peak-to-peak interval - 3D Mean ([2]; 10 µM): −9.8 % change from baseline
- Free Cmax ([3]; Table 1, peak plasma concentration in men, free therapeutic Cmax): 50 nM
- Free Cmax ([3]; Table 2, highest plasma concentration in humans after the therapeutic dose): 50 nM
